Patent US20240228490A1, “HETEROCYCLIC DERIVATIVE INHIBITOR AND PREPARATION METHOD THEREFOR AND APPLICATION THEREOF” (Shanghai Hansoh Biomedical Co., Ltd., priority 2021, published 2024)

What was measured:
[1] = test system: BRCA2 Knockout DLD-1 cells; assay: Inhibition of proliferation of BRCA2 Knockout DLD-1 cells (CellTiter-Glo); type: cell-based; details: Homo sapiens, about 144 hours incubation
Protocol: BRCA2 Knockout DLD-1 cells were cultured using RPMI1640 culture medium containing 10% FBS to an appropriate cell density. The cells were collected, and adjusted to an appropriate cell concentration using the complete culture medium. The cell suspension was spread on a 96-well plate (90 μL per well), and placed in a 37° C., 5% CO2 incubator overnight. Compound solutions of different concentrations were formulated using DMSO and culture medium, and vehicle control was set up. The compound solutions were added to the 96-well plate (10 μL per well), and the plate was incubated in a 37° C., 5% CO2 incubator for about 144 hours. CellTiter-Glo solution was added, and the plate was shaken to mix evenly, and incubated in the dark for 10 to 30 minutes. The values were measured with a Synergy H1 or Envision microplate reader.
The inhibition rate was calculated using the luminescence signal value. The concentration and inhibition rate were fitted to a nonlinear regression curve using Graphpad Prism software to obtain the IC50 value.

PAR in tumor tissue = assay: PD part of PK/PD study in MDA-MB-436 subcutaneous xenograft model: inhibition of PAR in tumor tissue (Western blot); type: in vivo, BALB/c nude mice; details: within 24 hours after a single administration, MDA-MB-436 model
Protocol: • a. Grouping: According to the growth of the tumor, when the tumor grew to a volume of 300-500 mm^3, tumor-bearing mice were selected according to the experimental design and randomly grouped (3 mice per each time point) to start the PK/PD test. • b. Fasting: All tumor-bearing mice were fasted (with free access to water) overnight (fasting >8 hours) before the administration. • c. Administration: Except for the blank control group, a single oral administration was carried out according to the time of the experimental design, and the administration volume was 10 mL/kg. • d. Sample collection: The mice were euthanized by CO2 asphyxiation according to the time of the experimental design, and the samples were collected. One plasma sample and three tumor tissue samples were collected from each animal.
Tumor tissue collection: After the blood collection, the tumor tissue was collected. The collected tumor tissue was divided into 3 aliquots (˜0.1 g each), placed into labeled 2 mL centrifuge tubes, and stored in a refrigerator at −80±10° C. for PK or PD test.
1 mL of tumor lysis solution was added to each tube of tumor tissue sample, followed by the addition of steel beads. […]
Protein quantification was performed by BCA protein quantification kit. […]
c. […] PAR was subjected to fluorescence imaging, and Gapdh internal control was subjected to fluorescence imaging using IRDye 800 CW channel.

[2] = Bidirectional permeability through Caco-2 cell model; details: human
Protocol: (§1) 100 μL of transport buffer (HBSS containing 10 μM test compound, 0.5% BSA, and 0.5% DMSO) was added to the administration end of A to B • b. 300 μL of transport buffer (HBSS containing 0.5% BSA) was added to the receiving end of A to B • c. 300 μL of transport buffer (HBSS containing 10 μM test compound, 0.5% BSA, and 0.5% DMSO) was added to the administration end of B to A • d. 100 μL of transport buffer (HBSS containing 0.5% BSA) was added to the receiving end of B to A • e. Incubation for 2 hours • d. Samples were taken, processed and detected by mass spectrometry.
(§2) • Instrument: liquid chromatography; • Chromatographic column: Waters XSelect HSS T3 C18 (2.1*50 mm, 2.5 μm); • Mobile phase: phase A: water containing 0.1% formic acid; phase B: acetonitrile containing 0.1% formic acid.
(§3) • Instrument: API4000 liquid chromatography-mass spectrometer; • Ion source: electrospray ionization source (ESI); • Detection method: positive ion detection; • Scan mode: multiple reaction monitoring (MRM) mode.

PARP1 enzyme = PARP1 enzyme (Homo sapiens (Human), UniProt P09874); assay: Inhibitory activity on PARP1 enzyme (chemiluminescence); type: biochemical
Protocol: The inhibitory activity of the compounds on PARP1 enzyme was determined by the chemiluminescence method in the experiment. The experiment was carried out in a 384-well plate. Coating histones in a 384-well plate: 5×histone solution was diluted 5 folds with PBS, added to a 384-well ELISA plate (25 μL per well), and incubated at 4° C. overnight. […] A mixture of PARP reaction biotin-labeled substrate, activated DNA, 10×PARP buffer and water was added (12.5 μL per well). Compound solutions with different concentrations were formulated using the experimental buffer (10% DMSO aqueous solution containing 1.25 mM DTT). The final detection concentration started from 100 nM, with 3-fold dilution and 8 concentrations. The compound solutions were added to the reaction wells of the 384-well plate (2.5 μL per well). 2.5 μL of 10% DMSO aqueous solution containing 1.25 mM DTT was added to the positive control well and blank well (2.5 μL per well). […] The plate was centrifuged at 1000 rpm for 1 minute, and reacted at room temperature for 60 minutes. […] Streptavidin-HRP solution diluted 50 folds with Blocking buffer 3 was added (25 μL per well), and the plate was incubated at room temperature for 30 minutes. […] The luminescence reaction solution obtained by mixing ECL substrate A and ELISA ECL substrate B (1:1) was added (50 μL per well) for reaction. The chemiluminescence values were measured immediately with a BioTek Synergy H1 or Envision instrument.
The chemiluminescence values were measured with a BioTek Synergy H1 or Envision instrument. The inhibition rate was calculated, and the concentration and inhibition rate were fitted to a nonlinear regression curve using Graphpad Prism software to obtain the IC50 value.

[3] = test system: human colorectal cancer cell line DLD-1 BRCA2−/− subcutaneous xenograft tumor; assay: In vivo pharmacodynamic study in DLD-1 BRCA2−/− subcutaneous xenograft tumor model; details: oral, once/day, 21 days
Protocol: BALB/c nude mice, 6 to 8 weeks old, 9, purchased from the Experimental Animal Management Department of Shanghai Institute of Family Planning
The recovered cells were plated in a cell culture flask (the cell type, date, name of the experimenter and the like were labeled on the wall of the flask), and cultured in a CO2 incubator (the temperature was 37° C. and the CO2 concentration was 5% in the incubator). • b. Cells were passaged once every three days. After passage, the cells continued to be cultured in the CO2 incubator. This process was repeated until the number of cells was sufficient for the in vivo efficacy test. • c. The cultured cells were collected, and counted with an automatic cell counter. According to the counting results, the cells were resuspended with PBS to obtain a cell suspension (density: 5×10^7/mL), which was placed in an ice box for later use.
The nude mice were labeled with disposable universal ear tags for rats and mice before inoculation. • b. During the inoculation, the cell suspension was mixed well. 0.1 to 1 mL of the cell suspension was drawn with a 1 mL syringe, air bubbles were removed, and then the syringe was placed on an ice pack for later use. • c. The nude mouse was bound with the left hand. The position on the right side of the back close to the right shoulder of the nude mouse (inoculation site) was disinfected with 75% alcohol. Inoculation started after 30 seconds. • d. The test nude mice were successively inoculated (each mouse was inoculated with 0.1 mL of cell suspension).
According to the tumor growth, the tumor was measured on 10 to 18 days after the inoculation, and the tumor size was calculated.
Calculation of tumor volume: tumor volume (mm^3)=length (mm)×width (mm)×width (mm)/2 • b. The tumor-bearing mice were grouped according to their body weight and tumor size by random grouping. • c. […] Tumors were measured and the mice were weighed twice a week after the administration of test compounds began. • e. Animals were euthanized at the end of the experiment. • f. Data were processed by using softwares such as Excel.

[4] = Pharmacokinetic assay in Balb/C mice; details: male, mouse, plasma, po, 1 mg/kg
Protocol: Balb/C mice were used as test animals.
(§4) Male Balb/C mice (6 mice per example), purchased from Shanghai Jiesijie Laboratory Animal Co., LTD, with Certificate No.: SCXK (Shanghai) 2013-0006 N0.311620400001794.
(§5) 5 g of hydroxyethyl cellulose (HEC, CMC-Na, viscosity: 800-1200 Cps) was weighed and dissolved in 1000 mL of purified water, followed by the addition of 10 g of Tween 80. The mixture was mixed well to obtain a clear solution.
(§6) 2.05 mg of the compound was weighed and dissolved in the solution. The mixture was shaken well, crushed in a cell crusher for 1 minute, and sonicated for 15 minutes to obtain a suspension with a concentration of 0.1 mg/mL.
(§7) After an overnight fast, male Balb/C mice were administered p.o. with the test compound at a dose of 1 mg/kg and a volume of 10 mL/kg.
(§8) 0.04 mL of blood was taken from the orbit of the mouse at 0, 0.5, 1, 2, 4, 6, 8 and 24 hours after the administration. The samples were stored in EDTA-K2 tubes, and centrifuged for 6 minutes at 4° C., 6000 rpm to separate the plasma. The plasma samples were stored at −80° C. The mouse was fed 4 hours after the administration.
(§9) • Liquid chromatography condition: Shimadzu LC-20AD pump • Mass spectrometry condition: AB Sciex API 4000 mass spectrometer • Chromatographic column: phenomenex Gemiu 5 μm C18 50×4.6 mm • Mobile phase: Eluent A was 0.1% formic acid in water, and Eluent B was acetonitrile • Flow rate: 0.8 mL/min • Elution time: 0-4.0 minutes, the eluent is as follows:
(§10) The main parameters of pharmacokinetics were calculated by WinNonlin 8.2.

in vivo = details: male, Balb/C, mouse, po, 1 mg/kg
Protocol: Balb/C mice were used as test animals.
as §4, §5, §6, §7, §8, §9, §10

in vitro = details: human, Caco-2
Protocol: as §1, §2, §3

Sequence of PARP1 enzyme (P09874 whole entry): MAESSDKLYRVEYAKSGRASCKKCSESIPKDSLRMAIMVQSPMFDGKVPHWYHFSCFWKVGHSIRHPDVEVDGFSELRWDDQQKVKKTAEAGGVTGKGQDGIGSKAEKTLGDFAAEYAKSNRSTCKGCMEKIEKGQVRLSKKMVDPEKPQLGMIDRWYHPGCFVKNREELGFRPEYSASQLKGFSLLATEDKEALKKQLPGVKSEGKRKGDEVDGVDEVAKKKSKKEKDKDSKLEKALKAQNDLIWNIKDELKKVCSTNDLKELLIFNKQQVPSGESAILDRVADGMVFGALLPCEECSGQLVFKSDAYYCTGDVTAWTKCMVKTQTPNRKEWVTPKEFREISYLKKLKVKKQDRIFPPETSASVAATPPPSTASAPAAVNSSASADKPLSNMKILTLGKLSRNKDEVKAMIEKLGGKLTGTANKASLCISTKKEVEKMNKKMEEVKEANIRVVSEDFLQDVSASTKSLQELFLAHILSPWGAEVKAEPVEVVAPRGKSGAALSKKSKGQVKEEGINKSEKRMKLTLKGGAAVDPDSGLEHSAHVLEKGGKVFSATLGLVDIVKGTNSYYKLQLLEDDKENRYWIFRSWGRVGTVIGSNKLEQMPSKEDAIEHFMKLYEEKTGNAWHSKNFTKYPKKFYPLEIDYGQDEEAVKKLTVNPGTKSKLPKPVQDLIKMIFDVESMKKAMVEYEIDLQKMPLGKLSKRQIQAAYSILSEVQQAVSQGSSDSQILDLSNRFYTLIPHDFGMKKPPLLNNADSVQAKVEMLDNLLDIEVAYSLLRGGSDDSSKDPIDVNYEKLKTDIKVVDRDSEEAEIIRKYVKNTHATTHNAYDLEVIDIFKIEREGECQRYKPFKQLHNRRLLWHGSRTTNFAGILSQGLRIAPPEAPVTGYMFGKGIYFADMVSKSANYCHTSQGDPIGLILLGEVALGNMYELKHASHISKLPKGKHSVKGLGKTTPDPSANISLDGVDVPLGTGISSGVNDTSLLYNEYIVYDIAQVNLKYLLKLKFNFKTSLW

SMILES | IC50 [1] [nM] | Inhibition of intratumoral PAR compared with AZD5305 (PAR in tumor tissue) | Papp A→B at 2 h, 10 μM [2] [×10⁻⁶ cm/s] | Papp B→A at 2 h, 10 μM [2] [×10⁻⁶ cm/s] | IC50 (PARP1 enzyme) [nM] | Animal's body weight [3] | Tumor growth inhibition rate TGI (%) [3] [%] | AUC(0-t) [4] [ng·h/mL] | Cmax [4] [ng/mL] | Tmax [4] [h] | half-life [4] [h] | efflux ratio at 2 h, 10 μM [2] | AUC(0-t) (in vivo) [ng·h/mL] | Cmax (in vivo) [ng/mL] | Tmax (in vivo) [h] | half-life (in vivo) [h] | Papp A→B at 2 h, 10 μM (in vitro) [×10⁻⁶ cm/s] | Papp B→A at 2 h, 10 μM (in vitro) [×10⁻⁶ cm/s] | efflux ratio at 2 h, 10 μM (in vitro)
CCc1cc2ncc(CN3CC=C(c4ccc(C(=O)NC)nc4)CC3)cc2[nH]c1=O [Example 1, 1′-((7-Ethyl-6-oxo-5,6-dihydro-1,5-naphthyridin-3-yl)methyl)-N-methyl-1′,2′,3′,6′-tetrahydro-[3,4′-bipyridine]-6-carboxamide] | 1.2 | comparable | 12.8 | 19.2 | 0.93 | no significant decrease | > 90 | 119000 | 9930 | 1 | 6.9 |  |  |  |  |  |  |  | 
CCc1cc2ncc(CN3CCN(c4cnc5c(NC)nccc5c4)CC3)cc2[nH]c1=O [Example 3, 3-Ethyl-7-((4-(8-(methylamino)-1,7-naphthyridin-3-yl)piperazin-1-yl)methyl)-1,5-naphthyridin-2(1H)-one] |  |  | 7.15 | 24.1 | 0.4 | no significant decrease | > 90 | 12700 | 1570 | 0.5 | 3.7 | 3.4 |  |  |  |  |  |  | 
CCc1cc2ncc(CN3CC=C(c4ccc(C(=O)NC5CC5)nc4)CC3)cc2[nH]c1=O [Example 29, N-Cyclopropyl-1′-((7-ethyl-6-oxo-5,6-dihydro-1,5-naphthyridin-3-yl)methyl)-1′,2′,3′,6′-tetrahydro-[3,4′-bipyridine]-6-carboxamide] | 1.9 |  | 12.2 | 19 | 0.98 | no significant decrease | > 90 | 60600 | 8270 | 0.5 | 3.7 | 1.6 |  |  |  |  |  |  | 
CCc1cc2ncc(CN3CC=C(c4ccc(C(=O)NC)nc4C#N)CC3)cc2[nH]c1=O [Example 35, 2-Cyano-1′-((7-ethyl-6-oxo-5,6-dihydro-1,5-naphthyridin-3-yl)methyl)-N-methyl-1′,2′,3′,6′-tetrahydro-[3,4′-bipyridine]-6-carboxamide] | 2.3 |  |  |  | 1 |  | > 90 |  |  |  |  |  | 43200 | 6100 | 0.5 | 2.7 | 5.19 | 15.7 | 3
CCc1cc2ncc(CN3CC=C(c4ccc(C(=O)NC)nc4F)CC3)cc2[nH]c1=O [Example 36, 1′-((7-Ethyl-6-oxo-5,6-dihydro-1,5-naphthyridin-3-yl)methyl)-2-fluoro-N-methyl-1′,2′,3′,6′-tetrahydro-[3,4′-bipyridine]-6-carboxamide] | 1.6 |  | 14.8 | 15.6 | 0.8 |  |  | 61900 | 6550 | 0.5 | 4.6 | 1.1 |  |  |  |  |  |  | 
CNC(=O)c1ccc(C2=CCN(Cc3cnc4cc(C5CC5)c(=O)[nH]c4c3)CC2)cn1 [Example 45, 1′-((7-Cyclopropyl-6-oxo-5,6-dihydro-1,5-naphthyridin-3-yl)methyl)-N-methyl-1′,2′,3′,6′-tetrahydro-[3,4′-bipyridine]-6-carboxamide] | 3.5 |  |  |  | 0.8 |  |  |  |  |  |  |  | 221000 | 8980 | 1 | 23 | 9.8 | 15.3 | 1.6
CCc1cc2ncc(CN3CC=C(c4cnc(C(=O)NC)s4)CC3)cc2[nH]c1=O [Example 46, 5-(1-((7-Ethyl-6-oxo-5,6-dihydro-1,5-naphthyridin-3-yl)methyl)-1,2,3,6-tetrahydropyridin-4-yl)-N-methylthiazole-2-carboxamide] |  |  |  |  | 0.6 |  | > 90 |  |  |  |  |  |  |  |  |  |  |  | 
CCc1cc2ncc(CN3CCN(c4cnc5c(NC)nc(C)cc5c4)CC3)cc2[nH]c1=O [Example 72, 3-Ethyl-7-((4-(6-methyl-8-(methylamino)-1,7-naphthyridin-3-yl)piperazin-1-yl)methyl)-1,5-naphthyridin-2(1H)-one] | 4.8 |  | 5.23 | 12.7 |  |  |  |  |  |  |  | 2.5 |  |  |  |  |  |  | 
